Test results: patent US6652835B1, “Targeting multimeric imaging agents through multilocus binding” (Epix Medical, Inc., priority 1999, dated 2003)
Where “and” joins values, the source holds several entries; their conditions need not be identical. Identical values can stand only once.

Tests used:
[1] = target: T1, Human Serum Albumin (HSA) (Homo sapiens, UniProt P02768); test: Average bound relaxivity in the presence of 4.5% HSA (20 MHz, 37° C.); assay type: physicochemical; conditions: for R1bound/Gd^+3 mM^−1s^−1 (20 MHz) / Total R1bound mM^−1s^−1 (20 MHz): bound to HSA; for R1bound/Gd^+3 mM^−1s^−1 (20 MHz): per Gd(III); for Total R1bound mM^−1s^−1 (20 MHz): whole molecule
Text: To understand Table 1, it is important to define the extent to which a target-binding MRI contrast agent can achieve its maximum possible relaxivity. This maximum relaxivity for a particular contrast agent is approximately equal to the relaxivity of the molecule when bound to a target (R1bound), such as Human Serum Albumin (HSA). The average ? bound is a normalized measure of the average relaxivity for all bound species under a standard set of conditions (such as a specific target or protein concentration, drug concentration, temperature, etc.) that is weighted by the bound population of each species. Therefore, since the value of ? bound is a normalized quantity, comparisons of relaxivities can be made among different molecules in the bound state by comparing values for ? bound. Comparison of the calculated ? bound values provides a convenient method for comparing compounds irrespective of their affinities for a target.
Calculating the average ( ? bound) requires measuring the relaxivity of the free chelate (R1free) as well as the observed relaxivity (R1obs) and percent binding of the agent to a target solution typically containing 4.5% of the target, e.g., HSA. The R1obs is a mole fraction (x) weighted average of R1free and R1bound: [formula]
(§1) The compounds of the present invention were evaluated for relaxivity using a Bruker NMS-120 Minispec NMR spectrometer operating at 0.47 Tesla (20 MHz H-1 Larmor frequency) and 37° C. T1 of water protons was determined by an inversion recovery pulse sequence using the instrument's software. Relaxivity was determined in the presence of the target (typically 4.5% HSA) by preparing 4 individual samples. The first contained only 4.5% HSA in phosphate buffered saline (PBS), and the other three contained ca. 20, 30, and 40 μM Gd(III), respectively, in addition to 4.5% HSA in PBS. The samples are incubated at 37 degrees C. for at least 15 minutes to ensure temperature equilibration before the T1 measurement is performed. The Gd(III) content of the samples is determined by inductively coupled plasma—mass spectrometry (ICP-MS). The relaxivity (per Gd(III) ion) is determined by plotting the relaxation rate (1/T1) in s^−1 versus the Gd(III) concentration in mM. The slope of a linear fit to the data gives the relaxivity. The relaxivity of the compounds in the absence of target is also determined in an analogous manner, except there is no target present.
The concentration of species bound to the target under these conditions is determined in a separate experiment using e.g. ultrafiltration or equilibrium dialysis. Knowledge of the amount of species bound to the target, the relaxivity in the presence of the target, and the relaxivity in the absence of the target allows the calculation of the average bound relaxivity as described herein.

[2] = Relaxivity of the free agent in the absence of target (20 MHz, 37° C.); assay type: physicochemical; conditions: no target
Protocol: as §1

[3] = target: T1, Human Serum Albumin (HSA); test: Percent binding to HSA (ultrafiltration); conditions: target HSA
Text: The extent of binding of a TBM to a target, such as HSA or fibrin, can be assessed by a variety of equilibrium binding methods. For example, binding to HSA can be measured by ultrafiltration. In a typical binding measurement using ultrafiltration, the targeting group is mixed with 4.5% weight/volume HSA in a pH 7.4 buffer. The sample is loaded into a commercially available centrifugation apparatus equipped with a 30 KDa molecular weight cutoff filter (Millipore Ultrafree MC Low Binding Regenerated Cellulose 30 KDa mol. wt. cutoff catalog #UFC3LTK00), permeable to the targeting group, but not HSA. A small portion (5-10%) of the sample volume is filtered by centrifugation at 2000×g for 20 min through the cutoff filter, and the concentration of unbound targeting group in the sample is measured in the filtrate. The concentration of species bound to the target under these conditions is determined in a separate experiment using e.g. ultrafiltration or equilibrium dialysis. Knowledge of the amount of species bound to the target, the relaxivity in the presence of the target, and the relaxivity in the absence of the target allows the calculation of the average bound relaxivity as described herein.

[4] = target: T2, clot containing human fibrin (Homo sapiens, UniProt P02671+P02675+P02679); test: Rabbit jugular vein clot model, MR imaging; assay type: in vivo; conditions: MR images after injection (FIG. 14)
T2 construct: host or cells: clot formed in the clamped rabbit jugular vein from added human fibrinogen and thrombin
T2 sequence (P02671 36-629 limits assumed): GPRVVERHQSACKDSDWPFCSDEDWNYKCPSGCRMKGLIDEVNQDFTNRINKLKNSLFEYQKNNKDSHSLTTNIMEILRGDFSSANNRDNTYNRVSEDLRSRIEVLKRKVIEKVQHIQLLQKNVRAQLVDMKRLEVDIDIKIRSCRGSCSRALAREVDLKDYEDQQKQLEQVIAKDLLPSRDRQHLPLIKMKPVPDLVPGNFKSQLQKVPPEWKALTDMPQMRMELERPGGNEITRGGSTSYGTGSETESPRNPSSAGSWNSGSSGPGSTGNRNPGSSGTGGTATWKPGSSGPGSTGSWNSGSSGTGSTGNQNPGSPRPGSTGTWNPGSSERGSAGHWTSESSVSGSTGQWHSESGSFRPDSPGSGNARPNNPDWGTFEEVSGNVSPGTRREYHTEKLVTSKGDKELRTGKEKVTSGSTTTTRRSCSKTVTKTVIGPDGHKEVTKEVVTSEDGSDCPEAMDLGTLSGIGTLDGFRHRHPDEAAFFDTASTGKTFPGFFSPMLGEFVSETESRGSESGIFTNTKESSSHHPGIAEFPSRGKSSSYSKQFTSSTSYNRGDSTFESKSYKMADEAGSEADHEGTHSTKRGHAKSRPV
T2 sequence (P02675 45-491 limits assumed): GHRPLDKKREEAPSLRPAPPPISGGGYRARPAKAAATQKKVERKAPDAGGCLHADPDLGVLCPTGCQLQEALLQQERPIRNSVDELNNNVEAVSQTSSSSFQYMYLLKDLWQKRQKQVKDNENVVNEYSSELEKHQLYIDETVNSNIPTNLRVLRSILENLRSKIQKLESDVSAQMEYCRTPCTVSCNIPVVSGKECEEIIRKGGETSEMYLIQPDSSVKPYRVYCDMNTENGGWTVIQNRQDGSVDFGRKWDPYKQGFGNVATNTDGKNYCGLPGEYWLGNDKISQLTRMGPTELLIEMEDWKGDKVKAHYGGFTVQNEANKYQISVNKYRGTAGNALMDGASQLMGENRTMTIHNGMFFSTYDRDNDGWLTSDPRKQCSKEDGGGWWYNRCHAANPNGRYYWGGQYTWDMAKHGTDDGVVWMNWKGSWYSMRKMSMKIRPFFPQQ
T2 sequence (P02679 27-437 isoform P02679-2 limits assumed): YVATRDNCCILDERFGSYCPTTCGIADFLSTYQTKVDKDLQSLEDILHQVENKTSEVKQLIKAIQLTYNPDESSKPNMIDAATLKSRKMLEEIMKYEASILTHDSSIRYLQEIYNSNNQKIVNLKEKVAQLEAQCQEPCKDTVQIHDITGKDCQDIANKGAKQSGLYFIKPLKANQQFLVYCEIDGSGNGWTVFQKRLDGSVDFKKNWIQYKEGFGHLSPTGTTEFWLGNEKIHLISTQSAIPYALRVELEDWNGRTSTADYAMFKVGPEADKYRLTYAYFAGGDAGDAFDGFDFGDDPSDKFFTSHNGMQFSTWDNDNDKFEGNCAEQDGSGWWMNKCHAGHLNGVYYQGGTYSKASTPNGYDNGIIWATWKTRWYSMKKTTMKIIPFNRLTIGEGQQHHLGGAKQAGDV
Protocol: One animal model that may be used is the rabbit jugular vein clot model in which the jugular vein is clamped. The vein is clamped at two locations, and the rabbit blood between the clamps is removed. Human fibrinogen, rabbit red blood cells and thrombin are added to the vein between the clamps to generate a clot containing human fibrin. The clot is typically aged for 30 minutes.
In the rabbit jugular model, a typical machine is a 1.5 Tesla using a spoiled gradient (SPGR) MRI at 36/5/30 deg). Alternatively, a 3D GRE 44/10/30 deg. method of imaging may be used with a 1.5 Tesla machine. Alternatively, IR 2000/10/700 methods may be employed with a 1.5 Tesla.
FIG. 14 is a reproduction of a color photograph of the images obtained in an experiment using the assay given in Example 1.

T1 sequence (P02768 25-609): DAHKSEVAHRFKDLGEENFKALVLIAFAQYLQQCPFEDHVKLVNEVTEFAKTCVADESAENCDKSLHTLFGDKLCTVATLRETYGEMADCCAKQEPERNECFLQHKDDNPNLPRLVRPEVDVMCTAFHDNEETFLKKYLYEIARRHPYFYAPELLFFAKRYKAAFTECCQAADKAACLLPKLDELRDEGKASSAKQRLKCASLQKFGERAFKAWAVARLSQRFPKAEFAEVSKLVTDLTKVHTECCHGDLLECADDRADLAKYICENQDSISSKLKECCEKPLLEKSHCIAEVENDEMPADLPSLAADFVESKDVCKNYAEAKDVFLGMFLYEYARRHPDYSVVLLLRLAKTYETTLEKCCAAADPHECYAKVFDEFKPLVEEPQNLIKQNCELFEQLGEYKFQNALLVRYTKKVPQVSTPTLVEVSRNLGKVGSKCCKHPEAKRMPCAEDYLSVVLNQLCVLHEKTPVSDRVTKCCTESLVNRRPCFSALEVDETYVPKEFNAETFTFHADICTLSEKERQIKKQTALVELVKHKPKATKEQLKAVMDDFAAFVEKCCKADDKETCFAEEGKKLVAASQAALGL

SMILES	ratio of R1bound to R1free ([1]; HSA)	R1bound/Gd^+3 mM^−1s^−1 (20 MHz) [1]	Total R1bound mM^−1s^−1 (20 MHz) [1]	free relaxivity [2]	% Bound [3]	fold increase in total relaxivity, two TBMs versus one TBM (M8-07) ([1]; HSA, relative to M8-07)	imaging of / binding to the clot [4]
Cc1cc(C)c(-c2ccc(CN(CCN(CCN(CCNC(=O)CNC(=O)CC(C(=O)[O-])N(CCN(CC(=O)[O-])CC(=O)[O-])CCN(CC(=O)[O-])CC(=O)[O-])C(=O)CNC(=O)CC(C(=O)[O-])N(CCN(CC(=O)[O-])CC(=O)[O-])CCN(CC(=O)[O-])CC(=O)[O-])C(=O)CNC(=O)CC(C(=O)[O-])N(CCN(CC(=O)[O-])CC(=O)[O-])CCN(CC(=O)[O-])CC(=O)[O-])C(=O)CNC(=O)CC(C(=O)[O-])N(CCN(CC(=O)[O-])CC(=O)[O-])CCN(CC(=O)[O-])CC(=O)[O-])cc2)c(C)c1.[Gd+3].[Gd+3].[Gd+3].[Gd+3] (stereo not drawn) [Compound M8-07]	1.7	16.0 mM⁻¹ s⁻¹ and 16 mM⁻¹ s⁻¹	64.0 mM⁻¹ s⁻¹ and 64 mM⁻¹ s⁻¹	9.2 mM⁻¹ s⁻¹	64.1%		
Cc1cc(C)c(-c2ccc(CN(CCN(CCN(CCN(Cc3ccc(-c4c(C)cc(C)cc4C)cc3)C(=O)CNC(=O)CC(C(=O)[O-])N(CCN(CC(=O)[O-])CC(=O)[O-])CCN(CC(=O)[O-])CC(=O)[O-])C(=O)CNC(=O)CC(C(=O)[O-])N(CCN(CC(=O)[O-])CC(=O)[O-])CCN(CC(=O)[O-])CC(=O)[O-])C(=O)CNC(=O)CC(C(=O)[O-])N(CCN(CC(=O)[O-])CC(=O)[O-])CCN(CC(=O)[O-])CC(=O)[O-])C(=O)CNC(=O)CC(C(=O)[O-])N(CCN(CC(=O)[O-])CC(=O)[O-])CCN(CC(=O)[O-])CC(=O)[O-])cc2)c(C)c1.[Gd+3].[Gd+3].[Gd+3].[Gd+3] (stereo not drawn) [Compound M8-08]	4.3	44.1 mM⁻¹ s⁻¹	176.5 mM⁻¹ s⁻¹	10.3 mM⁻¹ s⁻¹	93.7%	2.75 fold	
CCCCc1ccc(C(=O)N(Cc2ccccc2)C2c3ccccc3CC2OP(=O)([O-])OCCC#CCN2CCN(C(=O)CNC(=O)CC(C(=O)[O-])N(CCN(CC(=O)[O-])CC(=O)[O-])CCN(CC(=O)[O-])CC(=O)[O-])CCN(C(=O)CNC(=O)CC(C(=O)[O-])N(CCN(CC(=O)[O-])CC(=O)[O-])CCN(CC(=O)[O-])CC(=O)[O-])CCN(C(=O)CNC(=O)CC(C(=O)[O-])N(CCN(CC(=O)[O-])CC(=O)[O-])CCN(CC(=O)[O-])CC(=O)[O-])CC2)cc1.[Gd+3].[Gd+3].[Gd+3] (stereo not drawn) [Compound M8-10]		25.7 mM⁻¹ s⁻¹	77.1 mM⁻¹ s⁻¹		66.1%		
O=C([O-])CN(CCN(CC(=O)[O-])CC(=O)O)CCN(CC(=O)[O-])CC(=O)O.[Gd+3] [Gd-DTPA, gadolinium diethylenetriaminepentaacetic acid]							does not bind
